# Data: ChEMBL document CHEMBL2074024, “Reversal of P-glycoprotein-mediated multidrug resistance by diallyl sulfide in K562 leukemic cells and in mouse liver” (Carcinogenesis, 2004)
# Columns and labels:
# [1] = molecular target: T1, ATP-dependent translocase ABCB1 (Homo sapiens, UniProt P08183); experiment: TP_TRANSPORTER: drug resistance (vinblastine) in K562/R10 cells; type: functional, cell-based
# [2] = molecular target: T1, ATP-dependent translocase ABCB1; experiment: TP_TRANSPORTER: increase in Doxorubicin intracellular accumulation (Doxorubicin: […]) in K562/R10 cells; type: functional, cell-based
# T1 sequence (P08183 whole entry): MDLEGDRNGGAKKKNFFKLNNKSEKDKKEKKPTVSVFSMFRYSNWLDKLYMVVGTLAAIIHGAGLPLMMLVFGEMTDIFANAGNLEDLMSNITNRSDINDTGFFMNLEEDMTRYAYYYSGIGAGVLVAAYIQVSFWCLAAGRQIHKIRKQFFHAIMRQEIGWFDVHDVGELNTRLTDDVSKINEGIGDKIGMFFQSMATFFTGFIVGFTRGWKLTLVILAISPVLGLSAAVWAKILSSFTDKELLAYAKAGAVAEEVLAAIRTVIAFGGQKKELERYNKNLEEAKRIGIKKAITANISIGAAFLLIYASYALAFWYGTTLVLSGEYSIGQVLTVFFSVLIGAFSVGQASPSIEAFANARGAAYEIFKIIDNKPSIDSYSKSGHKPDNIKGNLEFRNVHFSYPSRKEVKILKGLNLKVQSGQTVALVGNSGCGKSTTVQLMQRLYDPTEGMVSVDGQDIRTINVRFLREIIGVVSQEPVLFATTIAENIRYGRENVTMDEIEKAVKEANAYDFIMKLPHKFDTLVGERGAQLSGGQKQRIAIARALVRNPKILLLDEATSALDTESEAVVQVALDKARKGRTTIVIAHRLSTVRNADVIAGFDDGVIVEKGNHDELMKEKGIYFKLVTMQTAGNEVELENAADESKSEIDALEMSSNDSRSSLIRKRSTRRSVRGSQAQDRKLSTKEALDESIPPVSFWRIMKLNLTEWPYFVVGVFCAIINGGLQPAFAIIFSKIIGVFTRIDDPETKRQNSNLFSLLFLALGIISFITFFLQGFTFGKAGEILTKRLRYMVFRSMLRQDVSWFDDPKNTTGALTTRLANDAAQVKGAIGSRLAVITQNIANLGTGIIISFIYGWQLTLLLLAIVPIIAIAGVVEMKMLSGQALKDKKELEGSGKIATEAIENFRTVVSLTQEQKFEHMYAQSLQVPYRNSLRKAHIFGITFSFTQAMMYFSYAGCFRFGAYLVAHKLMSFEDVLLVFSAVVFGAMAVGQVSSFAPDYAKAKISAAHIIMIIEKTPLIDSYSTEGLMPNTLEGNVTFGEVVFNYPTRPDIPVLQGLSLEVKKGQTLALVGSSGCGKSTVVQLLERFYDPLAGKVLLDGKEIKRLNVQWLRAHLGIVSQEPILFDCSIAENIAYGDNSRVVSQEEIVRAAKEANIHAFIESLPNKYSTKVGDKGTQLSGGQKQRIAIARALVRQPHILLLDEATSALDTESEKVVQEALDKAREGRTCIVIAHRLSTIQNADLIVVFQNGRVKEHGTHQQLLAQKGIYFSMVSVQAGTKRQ
structure (smiles),measurement,setting,value
C=CCSCC=C [DIALLYL SULFIDE],Activity,[1],inhibitor [+]
same,Activity,[2],inhibitor [+]
